Measurements: the supplement of paper PMC12533247

Key:
[1] = system: HSV-1 K26-GFP infected 3D skin equivalent; test: % activity on HSV-1 GFP signal (0 = infected DMSO control, -100 = uninfected control); higher = higher signal (negative = inhibition / toxicity); settings: time (h post infection): 48
Description: (§1)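 Triplicate dose-response (0.04 to 10 uM) of 11 top compounds in 3D bioprinted skin equivalents (submerged and ALI models) infected with GFP-HSV-1 K26 at MOI 0.1 and fixed at 48 hpi. GFP (virus) and tdTomato (fibroblast viability) signals are normalised to per-plate controls.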

[2] = system: HSV-1 K26-GFP infected 3D skin equivalent; test: % change of tdTomato fibroblast signal relative to infected DMSO control; higher = higher signal (negative = inhibition / toxicity); settings: time (h post infection): 48
Description: as §1

[3] = system: HSV-1 K26-GFP infected primary human skin cells; test: % change of HSV-1 GFP signal vs untreated infected cells; higher = less antiviral inhibition
Description: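 2D primary donor-derived keratinocytes (read at 20 hpi) and donor-matched dermal fibroblasts (read at 48 hpi) infected with GFP-HSV-1 K26 at MOI 1 and treated 1 h later with compound dilutions. IncuCyte GFP integrated intensity is normalised by subtracting mock-infected wells and dividing by untreated infected wells, shown as % change (-100 = full inhibition).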

C=CC(=O)N1CC/C(=C\c2ccc(F)c([N+](=O)[O-])c2)C(=O)/C(=C/c2ccc(F)c([N+](=O)[O-])c2)C1 [VLX1570]
Settings | % activity on HSV-1 GFP signal, [1] [%] | % change of tdTomato fibroblast signal, [2] [%]
0.041152 µM, model: ALI | 12.8 | -0.238
0.041152 µM, model: submerged | -7.34 | 0.174
0.123457 µM, model: ALI | -18.6 | -3.26
0.123457 µM, model: submerged | -4.05 | -4.91
0.37037 µM, model: ALI | -96 | -1.14
0.37037 µM, model: submerged | -5.03 | -4.63
1.111111 µM, model: ALI | -97.3 | -12.1
1.111111 µM, model: submerged | -4.45 | -15
3.33333 µM, model: ALI | -103 | -17.4
3.33333 µM, model: submerged | -17.6 | -33.6
10 µM, model: ALI | -101 | -25.4
10 µM, model: submerged | -55.5 | -48

% change of HSV-1 GFP signal [%], [3]
Settings | 0.001 µM | 0.003 µM | 0.0091 µM | 0.0274 µM | 0.0823 µM | 0.2469 µM | 0.7407 µM | 2.2222 µM | 6.6667 µM | 20 µM
cell type: primary dermal fibroblasts, donor: 5, time (h post infection): 48 | 1.14 | -5.38 | -8.21 | -7.07 | -8.61 | -9.37 | -7.7 | -10.9 | -99.906 | -99.87
cell type: primary keratinocytes, donor: 3, time (h post infection): 20 | 3.39 | 0.794 | 7.81 | 21.4 | 8.28 | 2.87 | 4.02 | -1.2 | -51.7 | -92.7
cell type: primary keratinocytes, donor: 4, time (h post infection): 20 | -7.51 | -5.56 | -6.93 | -1.76 | -3.15 | -3.18 | 6.11 | -25 | -97.4 | -100
cell type: primary keratinocytes, donor: 5, time (h post infection): 20 | 4.93 | 5.79 | 3.47 | 7.82 | 7.36 | 5.33 | 1.2 | -8.44 | -91.4 | -99.966
